Assay results published in paper PMC10634346 (Cancer Research Communications, 2023).
Read-outs that look alike come from different tables or passages of the source.

Tests used:
MCL1 mRNA in whole blood = MCL1 mRNA in whole blood of patients (RNA-seq, PK/PD modeling); format: in vivo, human; conditions: for Downregulation of MCL1 mRNA: C1D15
Procedure: Total RNA was extracted from blood of patients and cell lines using RNeasy Plus Mini Kit (QIAGEN, #74136) and cDNA prepared with the Maxima First Strand cDNA Synthesis Kit for RT-PCR (Thermo Fisher Scientific, K1642) according to manufacturer's instructions. The integrity of purified total RNA was evaluated using an Agilent 2100 Bioanalyzer system and RNA 6000 Nano Kit (Agilent, #5067-1511). Differential gene expression analysis was performed (Fios Genomics) from RNA-seq data (Discovery Life Sciences). MYC and MCL1 mRNA levels were measured by qPCR in vitro and in vivo, using a Taqman qPCR system (Thermo Fisher Scientific), TaqMan Fast Universal PCR Master Mix (2X) no AmpErase (#4352042) and TaqMan probes for MYC (Hs00153408_m1) and MCL1 (Hs03043899_m1). RNA-seq data were analyzed using DESeq2 ([35]).
(§1) Fifteen patients with refractory or relapsed DH-DLBCL or other MYC+ NHL were treated with enitociclib (30 mg, 21-day cycle, once weekly x3) as a 30-minute intravenous infusion on study days 1, 8, and 15 (NCT02635672). Longitudinal gene expression levels were analyzed by RNA-seq, and enitociclib plasma concentrations were measured using LC/MS-MS. The clinical study protocol was approved by the Institutional Review Board of participating institutions and complied with the Declaration of Helsinki, current Good Clinical Practice guidelines, and local laws and regulations. Written informed consent was provided by all participants prior to the initiation of any study-specific procedure.
(§2) All pharmacokinetic parameters were calculated by noncompartmental methods as described previously ([36]) using WinNonlin v5.3 (Certara LP). Pharmacokinetic/pharmacodynamic modeling was performed using SAAM II v2.3.2 (The Epsilon Group). Pooled pharmacokinetic data from all patients [n = 15 for single dose, cycle 1 day 1 (C1D1) and n = 11 for multiple doses, cycle 1 day 15 (C1D15)] were characterized using a one-compartment model with intravenous dosing. Subsequently, the pharmacokinetic/pharmacodynamic relationship of enitociclib plasma concentrations to MCL1 and MYC mRNA change was characterized using an indirect response model ([37]) on pooled biomarker data where enitociclib concentrations inhibit the formation of MCL1 or MYC mRNA as described by the following equation: […]
PD is defined as MCL1 or MYC mRNA expression level as a percentage from baseline, t (h) is the time, kin (1/h) is the formation rate of MCL1 or MYC, IC50 (µg/L) is the enitociclib concentration where there is 50% inhibition of PD, kout (h^−1) is the rate constant describing the loss of PD, and n is the hill coefficient. At homeostasis, kin = kout (PD); therefore, kout was replaced by kin/(PD)initial where (PD)initial is equal to 100%. Estimates of pharmacokinetic and pharmacodynamic parameters from pharmacokinetic/pharmacodynamic modeling of pooled data are presented as the estimate followed by CV in parentheses.
RNA-seq data generated from the analysis of two cell lines treated with the three CDK9 inhibitors was analyzed to investigate the differences in gene expression levels between various posttreatment timepoints and the pretreatment samples. Quality control assessment and exploratory data analysis by principal component analysis (PCA) were done on raw counts and on normalized count data. Normalization of RNA-seq count data was done using trimmed mean of M-values normalization and transformed with voom, resulting in log2 counts per million with associated precision weights. […] Significance values (Padj) were adjusted for multiple testing, by controlling the FDR using the Benjamini–Hochberg procedure. […] RNA-seq data generated from blood samples taken from patients before and after their first dose (C1D1) or after multiple doses, before and after their third dose (C1D15) were analyzed and normalized using the same pipeline as cell lines for comparisons.

[1] = tested on: cleaved PARP in SU-DHL-10 tumors; experiment: Pharmacodynamics in SU-DHL-10 xenograft tumors, cleaved PARP; format: in vivo, C.B-17 SCID mice; conditions: single dose
Procedure: The levels of p-Ser2, p-Ser5 and total RNA polymerase II, Myc, Mcl-1, cleaved PARP (cPARP), and cleaved Caspase 3 were assessed by Western blotting and quantified near-infrared detection and background corrected quantification of fluorescence intensity on an Odyssey Imaging System with IRDye secondary antibodies (LI-COR Biosciences). For quantification, the protein levels were normalized to GAPDH or HSP90, expressed as a ratio to DMSO or vehicle control at matched timepoints. The normalized relative protein levels of p-Ser2 were used for a treatment effect comparison by performing an ANOVA using PROC MIXED in SAS. The ANOVA model included treatment, timepoints and their interactions as fixed effects. The least square means (LSM), differences between the LSMs and associated P values were generated. The following primary antibodies were used: Rpb1 NTD (D8L4Y) rabbit antibody [Cell Signaling Technology (CST), #14958], anti-RNA polymerase II subunit B1 (phospho CTD Ser-2, clone 3E10) rat antibody (Merck, 04-1571-I), recombinant anti-c-MYC rabbit antibody (Y69; Abcam, #ab32072), MCL1 (D5V5L) rabbit antibody (CST, #39224), cleaved-PARP (Asp214) (E2T4K) mouse antibody (CST, #32563), HSP90 (C45G5) rabbit antibody (CST, #4877), and GAPDH mouse antibody (Zytomed Systems, #ZYT-RGM2-6C5). […]

[2] = Clinical pharmacokinetics, plasma LC/MS-MS (NCT02635672); format: in vivo, human; conditions: for Cmax / half-life: human, plasma
Procedure: as §1, §2

[3] = tested on: DH-DLBCL and other MYC+ NHL; conditions: 30 mg i.v. once weekly, phase I; cited from earlier work

SMILES: COc1cc(F)ccc1-c1cc(Nc2cc(CS(C)(=N)=O)ccn2)ncc1F (centres unmarked) [enitociclib]
- maximal downregulation of MCL1 mRNA level in blood of patients postdose (MCL1 mRNA in whole blood; 30 mg dose): 55.5%
- maximal extent of MCL1 mRNA downregulation (MCL1 mRNA in whole blood; C1D1, 30 mg, other MYC+ NHL, range 22.5%–48.2%): 44.54%
- time of maximal MCL1 mRNA inhibition (MCL1 mRNA in whole blood; C1D1, 30 mg, patient with the transformed follicular lymphoma): 8 hours postdose
- maximal extent of MCL1 mRNA downregulation (MCL1 mRNA in whole blood; C1D1, 30 mg, patients with DH-DLBCL, range 31%–52.4%): 49.28%
- Downregulation of MCL1 mRNA (MCL1 mRNA in whole blood; DH-DLBCL, range 30%–55.5%): 45.81%
- Downregulation of MCL1 mRNA (MCL1 mRNA in whole blood; other MYC+ NHL, range 0%–43.1%): 18.27%
- IC50 (MCL1 mRNA in whole blood; Homo sapiens, PK/PD indirect response model, pooled patient blood data, read-out: model estimated unbound IC50 for MCL1 mRNA): 61.2 to 69.1 nM
- cleaved PARP in tumors (in words) [1]: increase in cleaved PARP
- Cmax ([2]; intravenous, 22.5 mg, subject 3, dose lowered from 30 to 22.5 mg, not included in average, read-out: Multiple dose C max): 592 ng/mL
- half-life ([2]; intravenous, 22.5 mg, subject 3, dose lowered from 30 to 22.5 mg, not included in average, read-out: Multiple dose t1/2 (converted)): 152 min
- half-life ([2]; intravenous, 30 mg, patients treated with multiple doses, read-out: mean t1/2 (converted)): 334 min
- Cmax ([2]; iv, 30 mg, patients, 30 mg i.v. once weekly, read-out: Cmax): 1750 nM
- unbound Cmax ([2]; patients, 30 mg i.v. once weekly, Cmax x fu): 117 nmol/L
- complete metabolic remission (CR), patients with DH-DLBCL [3]: 2 of 7
